Measured values: patent EP0745595A1, “3-(3-Aryloxyphenyl)-1-(substituted methyl)-s-triazine-2,4,6-oxo or thiotrione herbicidal agents” (American Cyanamid Company, priority 1995, dated 1996)

How the values were obtained:
Format in all cases: in vivo
[1] = test system: ORYZA SATIVA, L. TEBONNET; assay: Preemergence herbicidal evaluation, ORYSAT (Rice, Tebonnet); conditions: for ORYSAT herbicidal rating: rated four to five weeks after treatment
In short: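 Preemergence herbicidal activity on Tebonnet rice was assessed using pint cups of seeded potting soil kept under conventional greenhouse care after treatment. Tests ended four to five weeks later. Each cup received a 0-9 rating from visual comparison with a control covering stand, vigor, malformation, size, chlorosis and overall appearance.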

CASSIA OBTUSIFOLIA, L. = assay: Preemergence herbicidal evaluation, CASOB (Sicklepod); conditions: for CASOB herbicidal rating: rated four to five weeks after treatment
In short: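 Preemergence herbicidal activity against sicklepod was assessed by planting seed mixed with potting soil atop about one inch of soil in pint cups. After treatment the cups were watered and handled per standard greenhouse practice. Tests ended four to five weeks later, with plant stand, vigor, malformation, size, chlorosis and overall appearance scored 0-9 relative to a control.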

[2] = test system: ORYZA SATIVA, L. TEBONNET; assay: Postemergence herbicidal evaluation, ORYSAT (Rice, Tebonnet); set-up: key: 0-9 visual rating scale vs untreated control
In short: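 This postemergence greenhouse test used Oryza sativa cv. Tebonnet seedlings grown about two weeks in jiffy flats. Test material in 50/50 acetone/water with 0.5% TWEEN®20 surfactant was applied through a spray nozzle at 40 psi. Four to five weeks later, stand, vigor, malformation, size, chlorosis and overall appearance were rated 0-9 relative to a control, and repeat tests were averaged.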

[3] = test system: ECHINOCHLOA ORYZOIDES (ARD.)FRITSCH; assay: Preemergence weed control under flooded paddy conditions, ECHORC (Watergrass (Calif.)); conditions: for Herbicidal effect rating, ECHORC: preemergence, 3-4 weeks after treatment; for ECHORC: pre-weed
In short: (§1)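 Visual 0-9 score (stand, vigor, malformation, size, chlorosis, appearance vs untreated control) taken 3-4 wk after treatment. Test compounds were added into flood water (1.5-3 cm over silt loam) as 50/50 v/v aqueous/acetone, equivalent to about 0.5-0.063 kg/ha a.i.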

[4] = test system: CYPERUS SEROTINUS, ROTTB.; assay: Preemergence weed control under flooded paddy conditions, CYPSE (Flatsedge); conditions: for Herbicidal effect rating, CYPSE: preemergence, 3-4 weeks after treatment; for CYPSE: pre-weed
In short: as §1

SAGITTARIA PYGMAEA, L. = assay: Preemergence weed control under flooded paddy conditions, SAGPY (Arrowhead (Pygmaea)); conditions: for Herbicidal effect rating, SAGPY: preemergence, 3-4 weeks after treatment; for SAGPY: pre-weed
In short: as §1

CYPERUS IRIA = assay: Preemergence weed control under flooded paddy conditions, CYPIR (Rice Flatsedge); conditions: for Herbicidal effect rating, CYPIR: preemergence, 3-4 weeks after treatment; for CYPIR: pre-weed
In short: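 This preemergence test mimicked flooded paddy conditions: rice flatsedge propagules were sown in the upper 0.5 cm of silt loam in undrained 32 oz. containers (10.5 cm diameter), with water held 1.5 to 3 cm over the soil. After normal greenhouse care, plants were scored 0-9 for stand, vigor, malformation, size, chlorosis and appearance relative to controls.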

[5] = test system: GLYCINE MAX(L) MERR. CV. WILLIAMS; assay: Preemergence herbicidal evaluation, GLXMAW (Soybean, Williams); conditions: for GLXMAW herbicidal rating: rated four to five weeks after treatment
In short: (§2)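 Greenhouse preemergence test; treated soil cups received compound in aqueous acetone (about 0.125 to 0.50 kg/ha) right after sowing and were assessed visually 4-5 weeks later on a 0-9 scale compared with control plants.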

GALIUM APARINE = assay: Preemergence herbicidal evaluation, GALAP (Galium); conditions: for GALAP herbicidal rating: rated four to five weeks after treatment
In short: as §2

[…], PRESL. = Preemergence weed control under flooded paddy conditions, MOOVA (Monochoria); conditions: for Herbicidal effect rating, MOOVA: preemergence, 3-4 weeks after treatment; for MOOVA: pre-weed
In short: as §1

[6] = test system: GLYCINE MAX(L) MERR. CV. WILLIAMS; assay: Postemergence herbicidal evaluation, GLXMAW (Soybean, Williams); set-up: key to GLXMAW rating / Herbicidal effect rating, GLXMAW / GLXMAW: 0-9 visual rating scale vs untreated control
In short: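 Herbicidal injury to Williams soybean was assessed after a postemergence spray of two-week-old seedlings grown in jiffy flats. Compounds were dispersed in an acetone/water (50/50) mixture with 0.5% TWEEN®20 surfactant and applied at 40 psi. After four to five weeks in the greenhouse, stand, vigor, malformation, size and chlorosis were compared against a control on a 0-9 scale, and results from replicate tests were averaged.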

[7] = test system: ABUTILON THEOPHRASTI, MEDIC.; assay: Postemergence herbicidal evaluation, ABUTH (Velvetleaf)
In short: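 This postemergence herbicide test used two-week-old velvetleaf seedlings grown in jiffy flats. Each compound was sprayed at 40 psi as a dispersion in 50/50 acetone/water with 0.5% TWEEN®20 surfactant. Plants then received routine greenhouse care. After four to five weeks, injury was scored visually on a 0-9 scale against a control, and replicate tests were averaged.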

ZEA MAYS L. = assay: Preemergence herbicidal evaluation, ZEAMX (Corn, Field); conditions: for ZEAMX herbicidal rating: rated four to five weeks after treatment
In short: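 Preemergence herbicidal activity on field corn: seeds in potting soil were sown atop roughly one inch of soil in separate pint cups, treated, and grown under standard greenhouse care. Four to five weeks post-treatment, stand, vigor, malformation, size, chlorosis and overall appearance were compared with a control and scored 0-9.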

Substance: Methyl 3-{2-[(2-chloro-α,α,α,-trifluoro-p-tolyl)oxy]phenyl}tetrahydro-5-methyl-2,4,6-trioxo-s-triazine-1(2H)-acetate [Compound 28]
- ORYSAT ([1]; Rate 0.125 kg/ha): 1.0
- ORYSAT herbicidal rating ([1]; Rate 0.125 kg/ha): 1.0
- ORYSAT ([1]; Rate 0.250 kg/ha): 2.0
- ORYSAT herbicidal rating ([1]; Rate 0.250 kg/ha): 2.0
- ORYSAT ([1]; Rate 0.500 kg/ha): 4.0
- ORYSAT herbicidal rating ([1]; Rate 0.500 kg/ha): 4.0
- ORYSAT ([1]; Rate 1.000 kg/ha): 4.0
- CASOB (CASSIA OBTUSIFOLIA, L.; Rate 0.125 kg/ha): 0.0
- CASOB herbicidal rating (CASSIA OBTUSIFOLIA, L.; Rate 0.125 kg/ha): 0.0
- CASOB (CASSIA OBTUSIFOLIA, L.; Rate 0.250 kg/ha): 2.0
- CASOB herbicidal rating (CASSIA OBTUSIFOLIA, L.; Rate 0.250 kg/ha): 2.0
- CASOB (CASSIA OBTUSIFOLIA, L.; Rate 0.500 kg/ha): 1.5
- CASOB herbicidal rating (CASSIA OBTUSIFOLIA, L.; Rate 0.500 kg/ha): 3.0
- CASOB (CASSIA OBTUSIFOLIA, L.; Rate 1.000 kg/ha): 3.0
- ORYSAT ([2]; Rate 0.063 kg/ha): 1.5
- ORYSAT ([2]; Rate 0.125 kg/ha): 2.0
- ORYSAT rating ([2]; Rate 0.125 kg/ha): 2.0
- ORYSAT ([2]; Rate 0.250 kg/ha): 2.5
- ORYSAT rating ([2]; Rate 0.250 kg/ha): 2.5
- ORYSAT ([2]; Rate 0.500 kg/ha): 3.0
- ORYSAT rating ([2]; Rate 0.500 kg/ha): 3.0
- Herbicidal effect rating, ECHORC ([3]; 0.063 kg/ha): 0.0
- Herbicidal effect rating, ECHORC ([3]; 0.125 kg/ha): 0.0
- Herbicidal effect rating, ECHORC ([3]; 0.250 kg/ha): 2.0
- Herbicidal effect rating, ECHORC ([3]; 0.500 kg/ha): 8.0
- ECHORC ([3]; Rate 0.250 kg/ha): 2.0
- ECHORC ([3]; Rate 0.500 kg/ha): 8.5
- ECHORC ([3]; Rate 1.000 kg/ha): 7.0
- Herbicidal effect rating, CYPSE ([4]; 0.063 kg/ha): 0.0
- Herbicidal effect rating, CYPSE ([4]; 0.125 kg/ha): 0.0
- Herbicidal effect rating, CYPSE ([4]; 0.250 kg/ha): 0.0
- Herbicidal effect rating, CYPSE ([4]; 0.500 kg/ha): 0.0
- CYPSE ([4]; Rate 0.250 kg/ha): 0.0
- CYPSE ([4]; Rate 0.500 kg/ha): 0.0
- CYPSE ([4]; Rate 1.000 kg/ha): 0.0
- Herbicidal effect rating, SAGPY (SAGITTARIA PYGMAEA, L.; 0.063 kg/ha): 0.0
- Herbicidal effect rating, SAGPY (SAGITTARIA PYGMAEA, L.; 0.125 kg/ha): 0.0
- Herbicidal effect rating, SAGPY (SAGITTARIA PYGMAEA, L.; 0.250 kg/ha): 0.0
- Herbicidal effect rating, SAGPY (SAGITTARIA PYGMAEA, L.; 0.500 kg/ha): 0.0
- SAGPY (SAGITTARIA PYGMAEA, L.; Rate 0.250 kg/ha): 0.0
- SAGPY (SAGITTARIA PYGMAEA, L.; Rate 0.500 kg/ha): 0.0
- SAGPY (SAGITTARIA PYGMAEA, L.; Rate 1.000 kg/ha): 0.0
- Herbicidal effect rating, CYPIR (CYPERUS IRIA; 0.063 kg/ha): 0.0
- Herbicidal effect rating, CYPIR (CYPERUS IRIA; 0.125 kg/ha): 0.0
- Herbicidal effect rating, CYPIR (CYPERUS IRIA; 0.250 kg/ha): 0.0
- Herbicidal effect rating, CYPIR (CYPERUS IRIA; 0.500 kg/ha): 4.0
- CYPIR (CYPERUS IRIA; Rate 0.250 kg/ha): 0.0
- CYPIR (CYPERUS IRIA; Rate 0.500 kg/ha): 6.5
- CYPIR (CYPERUS IRIA; Rate 1.000 kg/ha): 7.0
- GLXMAW ([5]; Rate 0.125 kg/ha): 0.0
- GLXMAW herbicidal rating ([5]; Rate 0.125 kg/ha): 0.0
- GLXMAW ([5]; Rate 0.250 kg/ha): 1.0
- GLXMAW herbicidal rating ([5]; Rate 0.250 kg/ha): 1.0
- GLXMAW ([5]; Rate 1.000 kg/ha): 0.0
- GALAP (GALIUM APARINE; Rate 0.125 kg/ha): 3.0
- GALAP herbicidal rating (GALIUM APARINE; Rate 0.125 kg/ha): 3.0
- GALAP (GALIUM APARINE; Rate 0.250 kg/ha): 4.0
- GALAP herbicidal rating (GALIUM APARINE; Rate 0.250 kg/ha): 4.0
- GALAP (GALIUM APARINE; Rate 0.500 kg/ha): 5.5
- GALAP herbicidal rating (GALIUM APARINE; Rate 0.500 kg/ha): 6.0
- GALAP (GALIUM APARINE; Rate 1.000 kg/ha): 5.0
- Herbicidal effect rating, MOOVA ([…], PRESL.; 0.063 kg/ha): 0.0
- Herbicidal effect rating, MOOVA ([…], PRESL.; 0.125 kg/ha): 0.0
- Herbicidal effect rating, MOOVA ([…], PRESL.; 0.250 kg/ha): 2.0
- Herbicidal effect rating, MOOVA ([…], PRESL.; 0.500 kg/ha): 9.0
- MOOVA ([…], PRESL.; Rate 0.250 kg/ha): 2.0
- MOOVA ([…], PRESL.; Rate 0.500 kg/ha): 9.0
- MOOVA ([…], PRESL.; Rate 1.000 kg/ha): 9.0
- GLXMAW ([6]; Rate 0.063 kg/ha): 2.5
- GLXMAW ([6]; Rate 0.125 kg/ha): 3.5
- GLXMAW rating ([6]; Rate 0.125 kg/ha): 3.5
- GLXMAW ([6]; Rate 0.250 kg/ha): 4.5
- GLXMAW rating ([6]; Rate 0.250 kg/ha): 4.5
- GLXMAW ([6]; Rate 0.500 kg/ha): 5.0
- GLXMAW rating ([6]; Rate 0.500 kg/ha): 5.0
- ABUTH ([7]; Rate 0.063 kg/ha): 4.0
- ABUTH ([7]; Rate 0.125 kg/ha): 6.0
- ABUTH rating ([7]; Rate 0.125 kg/ha): 6.0
- ABUTH ([7]; Rate 0.250 kg/ha): 7.0
- ABUTH rating ([7]; Rate 0.250 kg/ha): 7.0
- ABUTH ([7]; Rate 0.500 kg/ha): 9.0
- ABUTH rating ([7]; Rate 0.500 kg/ha): 9.0
- ZEAMX (ZEA MAYS L.; Rate 0.125 kg/ha): 0.0
- ZEAMX herbicidal rating (ZEA MAYS L.; Rate 0.125 kg/ha): 0.0
- ZEAMX (ZEA MAYS L.; Rate 0.250 kg/ha): 0.0
- ZEAMX herbicidal rating (ZEA MAYS L.; Rate 0.250 kg/ha): 0.0
- ZEAMX (ZEA MAYS L.; Rate 0.500 kg/ha): 1.0
- ZEAMX herbicidal rating (ZEA MAYS L.; Rate 0.500 kg/ha): 1.0
- ZEAMX (ZEA MAYS L.; Rate 1.000 kg/ha): 1.0
